# Tests used:
# [1] = tested on: CD11b(+) mononuclear cells from wild type mice; test: OCL formation by wild type mouse osteoclast precursors, TRACP stain; format: cell-based; details: 7 days, 50 ng/ml TNFα
# Procedure: FIG. 7A-C: 7A. CFU-Blast colony formation. Human CD34(+) cells were cultured with p62-ZZ inhibitor #3 and 1 ng/ml of rhIL-3 IL-6 and SCF for 7 days. Data are shown as the mean±SD (n=5). FIG. 7B. Human OCL formation. Non-adherent mononuclear cells (2.5×10^7 cells/10-cm dish) derived from human bone marrow samples were cultured in α-MEM containing 10% FCS, 100 pg/ml recombinant human GM-CSF(R & D) for 7 days. Then the cells were collected and plated (cell density is 1.0×10^6 cells/nil) in α-MEM containing 20% horse serum with 1 ng/ml TNFα. Half-media changes were performed twice a week containing various concentrations of the p62-ZZ inhibitor #3. The cultures were incubated for a total of 2 weeks at 37° C. with 5% CO2 and 95% humidity. The osteoclasts were stained with the 23C6 antibody which recognizes CD51/61. Data are shown as the mean±SD (n=5). *P<0.01 compared to vehicle treated cultures. 7C. OCL formation by wild type and p62−/− mouse osteoclast precursors. Data is shown as the mean±SD (n=4). *: P<0.01 compared to no-inhibitor cultures. The effects of p62-ZZ inhibitor #3 on osteoclast formation by p62^−/− OCL precursors were examined to determine the specificity of the effects of the p62-ZZ inhibitor #3 on osteoclast precursors. CDIIb(+) mononuclear cells from wild type and p62″/_mice were used. […] OCLs were scored as TRAP positive cells containing 3 or more nuclei. […]
# IL-6 production = test: TNF-α induced IL-6 production by marrow stromal cells, ELISA; format: cell-based, human
# Procedure: (§1) FIG. 5A-B: 5A. VCAM-1 expression using Western blot analysis. Normal human stromal cells were cultured with/without TNF and p62-ZZ inhibitors (#1-6) for 48 hours. The cell lysates were collected and VCAM-1 expression was measured using an anti-VCAM-1 antibody (Santa Cruz). FIG. 5B. IL-6 production by human and mouse marrow stromal cells by ELISA. Normal human and mouse marrow stromal cells were cultured with/without TNFα and p62-ZZ inhibitors (#1-6) for 48 hours. The cell culture media were collected and IL-6 production measured using an IL-6 ELISA kit (R &D). Data are shown as the means (n=2).
# Normal human or mouse marrow stromal cells were maintained in 10% FBS-IMDM and treated with p62-ZZ inhibitors (#1-6) for 3 hours. Then TNFα or vehicle was added for 48 hours. Cell lysates were collected and VCAM-1 expression measured by Western blot using an anti-VCAM-1 antibody (Santa Cruz). The culture media were collected and IL-6 production was measured using an IL-6 ELISA kit (R&D Company).
# VCAM-1 expression = test: TNF-α induced VCAM-1 expression by marrow stromal cells, Western blot; format: cell-based, human; details: 3 h pre-treatment, TNFα 48 hours
# Procedure: as §1, with “(n=2). Normal human or mouse marrow stromal cells were maintained in 10% FBS-IMDM and treated with p62-ZZ inhibitors (#1-6) for 3 hours. Then TNFα or vehicle was added for 48 hours. Cell lysates were collected and VCAM-1 expression measured by Western blot using an anti-VCAM-1 antibody (Santa Cruz). The culture media were collected and IL-6 production was measured using an IL-6 ELISA kit (R&D Company).” for “(n=2).”
# [2] = tested on: CD138(+) primary myeloma cells; test: CD138(+) primary myeloma cell proliferation, MTT assay; format: cell-based, human; details: 48 h, FIG. 4B
# Procedure: FIG. 4A-C: 4A. Effect of p62-ZZ inhibitor #3 on myeloma cell growth. MM cell growth was assayed by MTT assay. Data are shown as mean±SD (n=5). FIG. 4B. MTT assay of CD138(+) primary myeloma cells. Data are shown as mean±SD (n=5). FIG. 4C. Effects of p62-ZZ inhibitors on human stromal cell growth. Primary human stromal cells (5×10^3/well) were cultured with 10 μM of p62-ZZ inhibitor (#1-6) containing 10% FCS in IMDM for 48 hours. Stromal cells growth was assayed by MTT assay. Data are shown as the mean±SD (n=5). *P<0.01 compared to vehicle treated culture. MM1.S (3×10^5 cells/well) or CD138 (+) (1×10^5 cells/well) primary myeloma cells were incubated in 96-well plates in the presence of RPMI-1640-10% FCS and various concentrations of p62-ZZ inhibitor #3 at 37° C. 5% CO2 for 48 h to determine the IC50 for inhibiting myeloma cell proliferation.
# phospho-PKCζ = test: TNF-α induced PKCζ phosphorylation in marrow stromal cells, Western blot; format: cell-based, human or mouse; details: pre-treated 3 hours, 10 ng/ml TNF-α 5 min
# Procedure: FIG. 6. The effect of p62-ZZ Inhibitors on phospho-PKCζ activation by TNFα stimulated MM patient and mouse marrow stromal cells. For assay of phospho-PKCz, cells were stimulated with 10 ng/ml of TNFα for 5 min and cell lysates were collected. The phospho PKCζ was assayed by Western blot using anti-phospho PKCz anti-body (Cell Signaling). Phospho-PKCζ is an unique downstream signal activated by interactions with the p62-ZZ domain. Therefore, we examined whether p62-ZZ inhibitor #3 blocked its phosphorylation. Marrow stromal cells derived from patients with multiple myeloma or mouse stromal cells were cultured in 10% FBS IMDM and then pre-treated with various p62-ZZ inhibitors for 3 hours. For assay of phospho-PKCζ, cells were stimulated with 10 ng/ml of TNF-a for 5 min and the cell lysates were collected. Phospho PKCζ was assayed by Western blot using an anti-phospho PKCζ anti-body (Cell Signaling). TNF-α induced PKCζ phosphorylation in stromal cells was blocked when the cells were pre-treated with p62-ZZ inhibitor #3 for 3 hours.
smiles,measurement,setting,value
"OCCNCc1ccc(OCc2ccccc2)c(OCc2ccccc2)c1 [Compound 3, 2-[[3,4-bis(phenylmethoxy)phenyl]methylamino]ethanol]",IC50,"[1]; Mus musculus, Osteoclast, 168 h, read-out: IC50 concentration for OCL formation, wild type cells",1 ng/mL
same,OCL formation in wild type mice cell cultures,[1]; various concentrations,blocked OCL formation dose dependently
same,IL-6 production induced by TNF-α blocked compared to vehicle,"IL-6 production; marrow stromal cells, 3 h pre-treatment, TNFα 48 hours",90%
same,IL-6 production by TNF-α stimulated normal human stromal cells (result in words),"IL-6 production; normal human stromal cells, FIG. 5B",blocked IL-6 production
same,VCAM-1 expression induced by TNF-α blocked compared to vehicle,VCAM-1 expression,30%
same,growth of CD138(+) primary myeloma cells (result in words),[2],directly inhibited
same,TNF-α induced PKCζ phosphorylation in stromal cells,phospho-PKCζ,blocked

# — patent US11739053B2, “P62-ZZ chemical inhibitor” (ID4PHARMA, LLC, priority 2011, dated 2023)
